Measurements reported in PubChem BioAssay (NCI).
Values joined by “and” are separate entries in the source; they are usually repeats but may differ in a detail not shown here. Identical values can stand only once.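 How tested: cells in 96-well plates exposed to compound for 48 hours at five concentrations. At the GI50, growth is halved. TGI is the concentration that stops growth completely.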

Tests used:
Assay in all cases: NCI-60 cell line screen, 48 h
[1] = tested on: ACHN renal
[2] = tested on: HT29 colon
[3] = tested on: IGROV1 ovarian
[4] = tested on: NCI-H226 lung
[5] = tested on: OVCAR-4 ovarian
[6] = tested on: SNB-19 CNS
[7] = tested on: SNB-75 CNS
[8] = tested on: TK-10 renal
[9] = tested on: SR leukemia
[10] = tested on: DU-145 prostate

| SMILES | TGI [1] | TGI [2] | TGI [3] | TGI [4] | TGI [5] | TGI [6] | TGI [7] | TGI [8] | TGI [9] | GI50 [1] | GI50 [10] | GI50 [2] | GI50 [3] | GI50 [4] | GI50 [6] | GI50 [7] | TGI [10] | GI50 [5] | GI50 [8] |
| --- | --- | --- | --- | --- | --- | --- | --- | --- | --- | --- | --- | --- | --- | --- | --- | --- | --- | --- | --- |
| CC(C(=O)c1ccc(O)cc1)C1(O)C(=O)Nc2c(Cl)cc(Cl)cc21 (stereo unspecified) | 28.3 µM | > 100 µM | > 100 µM | > 100 µM | 50.5 µM | > 100 µM | > 100 µM | > 100 µM |  |  |  |  |  |  |  |  |  |  |  |
| COC(=O)c1ccc(N/C=C(/C#N)c2ccsc2)cc1 | 18.8 µM | 25.3 µM | 65.2 µM | 39 µM |  | 29.8 µM | 18.9 µM | 30.7 µM | > 100 µM |  |  |  |  |  |  |  |  |  |  |
| O=C(Cc1ccc(-c2ccc(OCCN3CCOCC3)cc2)cn1)NCc1ccccc1 | > 100 µM | > 37.6 µM | > 100 µM | > 100 µM | > 100 µM | > 100 µM | > 100 µM | > 100 µM |  | 85.7 nM and 81.1 nM | 32.4 nM and 38.7 nM | 34.3 nM and 34.2 nM | 94.4 nM and 70.8 nM | 244 nM and 112 nM | 52.8 nM and 44.8 nM | 33.3 nM and 21.8 nM |  |  |  |
| COc1ccc(C2C(C(=O)O)=C(CO)Oc3cc4c(cc32)OCO4)c(OC)c1 (stereo unspecified) | > 100 µM | > 100 µM | > 100 µM |  | > 100 µM | > 100 µM | > 100 µM | > 100 µM |  |  |  |  |  |  |  |  |  |  |  |
| CN(C)C(=S)/N=C(\N)N(C)C | > 100 µM | > 100 µM | > 100 µM | > 100 µM | > 100 µM | > 100 µM | > 100 µM | > 100 µM | > 100 µM |  |  |  |  |  |  |  |  |  |  |
| CNC(=O)NCCCCC(NC(=O)OCc1ccccc1)C(=O)OCc1ccccc1 (stereo unspecified) | 33.8 µM | > 100 µM | 76.4 µM | > 100 µM | 46.5 µM | > 100 µM | 41.6 µM | 52.6 µM | 61.4 µM |  |  |  |  |  |  |  |  |  |  |
| CCSc1nnc(-c2ccc3ccccc3c2O)n1-c1ccccc1 |  |  | > 100 µM |  | > 100 µM |  | > 100 µM | > 100 µM |  |  | > 100000 nM |  | 7590 nM |  |  | 71000 nM | > 100 µM | 7.22 µM |  |
| CC(C)(C)CC(C)(C)c1cc2c(O)c(c1)Cc1cc(C(C)(C)CC(C)(C)C)cc(c1O)Cc1cc(C(C)(C)CC(C)(C)C)cc(c1O)Cc1cc(C(C)(C)CC(C)(C)C)cc(c1O)Cc1cc(C(C)(C)CC(C)(C)C)cc(c1O)Cc1cc(C(C)(C)CC(C)(C)C)cc(c1O)Cc1cc(C(C)(C)CC(C)(C)C)cc(c1O)Cc1cc(C(C)(C)CC(C)(C)C)cc(c1O)C2 | > 100 µM | > 100 µM | > 100 µM |  | > 100 µM | > 100 µM | > 100 µM | > 100 µM |  |  |  |  |  |  |  |  |  |  |  |
| C=CC(=O)OCCCS(=O)(=O)[O-].C=CC(=O)OCCCS(=O)(=O)[O-].NC1CCCCC1N.[Pt+4] | > 25 µM | > 25 µM | > 25 µM | > 25 µM | > 25 µM | > 25 µM | > 25 µM | > 25 µM |  | > 25000 nM |  | > 25000 nM | > 25000 nM | > 25000 nM | > 25000 nM | > 25000 nM |  | > 25 µM | > 25 µM |
| CC1=C(C(=O)NCc2ccccc2)C(c2ccc(N(C)C)cc2)C(C(=O)NCc2ccccc2)=C(C)N1 | > 100 µM | > 100 µM | > 100 µM | > 100 µM | > 100 µM | > 100 µM | > 100 µM | > 100 µM |  |  |  |  |  |  |  |  |  |  |  |
| N#CC1=C(N)Oc2c(ccc3cccnc23)C1c1ccccc1 (stereo unspecified) | > 100 µM |  | > 100 µM | 50.9 µM | 98.9 µM | > 74.1 µM | 3.5 µM | 86.8 µM | 29 µM |  |  |  |  | 11400 nM |  |  |  |  |  |
| O=C(/C=C/c1ccco1)N1CCN(Cc2ccccc2)CC1 | > 100 µM | > 100 µM | > 100 µM |  | > 100 µM | > 100 µM | > 100 µM | > 100 µM | > 100 µM |  |  |  |  |  |  |  |  |  |  |
| COc1cc2ccnc(-c3n[nH]c4cc(OC)c(OC)cc34)c2cc1OC | > 100 µM | > 100 µM | > 100 µM | > 100 µM | > 100 µM | > 100 µM | > 100 µM | > 100 µM | > 100 µM |  |  |  |  |  |  |  |  |  |  |
| C=C(C)C1Cc2cc(C(C)=O)ccc2O1 (stereo unspecified) | > 100 µM | > 100 µM | > 100 µM | > 100 µM | > 100 µM | > 100 µM | > 100 µM | > 100 µM |  |  |  |  |  |  |  |  | > 100 µM |  |  |
| CC(C)=CC1(C)/C(=N\O)C(C)(CC(C)C)C(=O)N1O (stereo unspecified) | > 100 µM | > 100 µM | > 100 µM | > 100 µM | > 100 µM | > 100 µM | > 100 µM | > 100 µM | > 100 µM |  |  |  |  |  |  |  |  |  |  |
| O=C(O)c1ccccc1C(=O)Nc1cc2c(cc1Br)-c1ccccc1C2=O | > 100 µM | > 100 µM | > 100 µM |  | > 100 µM | > 100 µM | > 100 µM | > 100 µM |  |  |  |  |  |  |  |  | > 100 µM |  |  |
| NC(CCSCCF)C(=O)O (stereo unspecified) | > 100 µM | > 100 µM | > 100 µM | > 100 µM | > 100 µM | > 100 µM |  | > 100 µM | > 100 µM |  |  |  |  |  |  |  |  |  |  |
